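Briefly, cells in 96-well plates were exposed to five compound concentrations for 48 h, and endpoints were estimated by linear interpolation. Here, GI50 denotes the concentration required for 50% inhibition of growth. TGI is the concentration that stops growth completely.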
Assays:
Assay in all cases: inhibition of tumour cell growth, NCI panel, 48 h
[1] = tested on: MDA-MB-435
[2] = tested on: RPMI-8226 leukemia
[3] = tested on: NCI-H460 lung
[4] = tested on: M14 melanoma
[5] = tested on: NCI-H522 lung
[6] = tested on: SW-620 colon
[7] = tested on: SR leukemia
[8] = tested on: OVCAR-4 ovarian
[9] = tested on: RXF 393 renal
[10] = tested on: HCT-116 colon
[11] = tested on: UO-31 renal
[12] = tested on: DU-145 prostate
[13] = tested on: LOX IMVI melanoma
[14] = tested on: HL-60(TB) leukemia
[15] = tested on: OVCAR-5 ovarian
[16] = tested on: COLO 205 colon
[17] = tested on: ACHN renal
[18] = tested on: U251 CNS
[19] = tested on: MCF7 breast
[20] = tested on: SNB-19 CNS
[21] = tested on: A498 renal
[22] = tested on: CAKI-1 renal
[23] = tested on: K-562 leukemia
[24] = tested on: 786-0 renal
[25] = tested on: SN12C renal
[26] = tested on: MDA-MB-231 breast
[27] = tested on: HOP-62 NSCLC
[28] = tested on: HCT-15 colon
[29] = tested on: SNB-75 CNS
[30] = tested on: PC-3 prostate
[31] = tested on: NCI-H226 lung
[32] = tested on: OVCAR-8 ovarian
[33] = tested on: HCC-2998 colon
[34] = tested on: HT29 colon
[35] = tested on: NCI/ADR-RES ovarian
[36] = tested on: TK-10 renal
[37] = tested on: SF-268 CNS
[38] = tested on: UACC-62 melanoma
[39] = tested on: MOLT-4 leukemia
[40] = tested on: HS 578T breast
[41] = tested on: SF-295 CNS
[42] = tested on: UACC-257 melanoma
[43] = tested on: T-47D breast
[44] = tested on: NCI-H23 lung
[45] = tested on: SK-MEL-5 melanoma
[46] = tested on: KM12 colon
[47] = tested on: HOP-92 NSCLC
[48] = tested on: MALME-3M melanoma
[49] = tested on: EKVX NSCLC
[50] = tested on: SK-MEL-28 melanoma
[51] = tested on: SK-OV-3 ovarian
[52] = tested on: SF-539 CNS
[53] = tested on: OVCAR-3 ovarian
[54] = tested on: BT-549 breast
[55] = tested on: A549 NSCLC

Structure (SMILES): O=C1C(=O)c2ccccc2C(O)=C1CCCc1ccc(C2CCCCC2)cc1
- GI50 [1]: 3.64 µM
- TGI [1]: 22.6 µM
- GI50 [2]: 1.8 µM
- TGI [2]: 23.7 µM
- GI50 [3]: 2.78 µM
- TGI [3]: 10.3 µM
- GI50 [4]: 5.93 µM
- TGI [4]: 22.4 µM
- GI50 [5]: 7.69 µM
- TGI [5]: > 100 µM
- GI50 [6]: 4.36 µM
- TGI [6]: 19.5 µM
- GI50 [7]: 2.44 µM
- TGI [7]: 31 µM
- GI50 [8]: 3.23 µM
- TGI [8]: > 100 µM
- GI50 [9]: 11.5 µM
- TGI [9]: 26.8 µM
- GI50 [10]: 2.01 µM
- TGI [10]: 14.3 µM
- GI50 [11]: 5 µM
- TGI [11]: 23.2 µM
- GI50 [12]: 5.17 µM
- TGI [12]: 36.5 µM
- GI50 [13]: 1.15 µM
- TGI [13]: 12 µM
- GI50 [14]: 2.94 µM
- TGI [14]: 28.5 µM
- GI50 [15]: 17 µM
- TGI [15]: 42.2 µM
- GI50 [16]: 7.02 µM
- TGI [16]: 34.8 µM
- GI50 [17]: 5.15 µM
- TGI [17]: > 100 µM
- GI50 [18]: 6.42 µM
- TGI [18]: > 100 µM
- GI50 [19]: 4.17 µM
- TGI [19]: 34.2 µM
- GI50 [20]: 5.66 µM
- TGI [20]: > 100 µM
- GI50 [21]: 2.35 µM
- TGI [21]: 20.9 µM
- GI50 [22]: 2.02 µM
- TGI [22]: 6.51 µM
- GI50 [23]: 3.28 µM
- TGI [23]: > 100 µM
- GI50 [24]: 3.73 µM
- TGI [24]: 43.5 µM
- GI50 [25]: 6.35 µM
- TGI [25]: > 100 µM
- GI50 [26]: 10.4 µM
- TGI [26]: 31 µM
- GI50 [27]: 7.2 µM
- TGI [27]: 23 µM
- GI50 [28]: 3 µM
- TGI [28]: 24.6 µM
- GI50 [29]: 5.17 µM
- TGI [29]: 91 µM
- GI50 [30]: 0.722 µM
- TGI [30]: 44.8 µM
- GI50 [31]: 5.42 µM
- TGI [31]: 27.6 µM
- GI50 [32]: 6.01 µM
- TGI [32]: > 100 µM
- GI50 [33]: 11.6 µM
- TGI [33]: 61.4 µM
- GI50 [34]: 5.11 µM
- TGI [34]: > 100 µM
- GI50 [35]: 5.66 µM
- TGI [35]: 76.5 µM
- GI50 [36]: 23.4 µM
- TGI [36]: > 100 µM
- GI50 [37]: 3.8 µM
- TGI [37]: 49.6 µM
- GI50 [38]: 0.816 µM
- TGI [38]: 19.4 µM
- GI50 [39]: 4.24 µM
- TGI [39]: > 100 µM
- GI50 [40]: 8.59 µM
- TGI [40]: 56.9 µM
- GI50 [41]: 1.89 µM
- TGI [41]: 6.36 µM
- GI50 [42]: 6.5 µM
- TGI [42]: > 100 µM
- GI50 [43]: 3.2 µM
- TGI [43]: 35.7 µM
- GI50 [44]: 4.14 µM
- TGI [44]: 61.4 µM
- GI50 [45]: 1.52 µM
- TGI [45]: 13.9 µM
- GI50 [46]: 4.16 µM
- TGI [46]: 17.9 µM
- GI50 [47]: 1.71 µM
- TGI [47]: 24 µM
- GI50 [48]: 3.55 µM
- TGI [48]: 51 µM
- GI50 [49]: 3.22 µM
- TGI [49]: 20.9 µM
- GI50 [50]: 8.54 µM
- TGI [50]: 27.2 µM
- GI50 [51]: 10.9 µM
- TGI [51]: 59.7 µM
- GI50 [52]: 5.78 µM
- TGI [52]: 28.7 µM
- GI50 [53]: 0.96 µM
- TGI [53]: 15.2 µM
- GI50 [54]: 3.19 µM
- TGI [54]: 39.3 µM
- GI50 [55]: 3.93 µM
- TGI [55]: > 100 µM

— PubChem BioAssay (NCI)
